From patent US9617242B2, “Histone demethylase inhibitors” (priority 2012, dated 2017)
Structures can show the parent of a compound that is named as a salt. Where two headings read alike, the source gives them in different places.

Tests used:
KDM5A/B = test: In vitro cell-based assay: tri-methyl H3K4 immuno-blotting in ZR-75-1 breast cancer cells
Procedure: This quantitative immuno-blotting assay measures the amount tri-methylated histone H3 at amino acid Lysine number 4, a specific substrate […] of the direct enzymatic activity of the histone demethylases KDM5A and KDM5B from extracts of the ZR-75-1 breast cancer cell line.
This assay is a fluorometric immunoassay for the quantification of tri-methyl H3K4 extracted from cells treated with test compound and is used as a measure of the cellular inhibition of KDM5A/B.
Extracts were prepared containing all of the cellular histone material using detergent based lysis and sonication methods. These lysates were subsequently normalized for total protein content using a colorimetric bicinchonic acid assay (MicroBCA Pierce/Thermo Scientific). Normalized cell extracts were then subjected to typical immuno-blotting procedures using NuPage reagents (Life Technologies). Electrophoretically separated histones were then transferred and immobilized using polyvinylidene difluoride membrane (Immobilon-FL Millipore). The amount of tri-methylated lysine 4 of histone H3 was detected using an antibody specific to the tri-methylated state (Cell Signaling Technologies) and quantified on an infrared imager using a densitometry software package (Odyssey CLx, Image Studio, Li-Cor). This background subtracted densitometry value was reported as a ration of the GAPDH amount for that sample and then calculated as a percent of the DMSO treated sample. The software package XL-fit (IDBS) was then used to calculate a relative IC50 value for the dilution series of a given test compound according to the equation: fit=(D+((Vmax*(x^n))/((x^n)+(Km^n)))).

Jarid1B = Jarid1B (Homo sapiens (Human), UniProt Q9UGL1); test: Jarid1B in vitro enzyme inhibition assay (TR-FRET); assay type: biochemical
JMJD2C = JMJD2C (Homo sapiens (Human), UniProt Q9H3R0); test: JMJD2C in vitro enzyme inhibition assay (TR-FRET); assay type: biochemical
Jarid1A = Jarid1A (Homo sapiens (Human), UniProt P29375); test: Jarid1A in vitro enzyme inhibition assay (TR-FRET); assay type: biochemical
[1] = 72 hours, read-out: Cellular IC50

Sequence of Jarid1B (Q9UGL1 2-751): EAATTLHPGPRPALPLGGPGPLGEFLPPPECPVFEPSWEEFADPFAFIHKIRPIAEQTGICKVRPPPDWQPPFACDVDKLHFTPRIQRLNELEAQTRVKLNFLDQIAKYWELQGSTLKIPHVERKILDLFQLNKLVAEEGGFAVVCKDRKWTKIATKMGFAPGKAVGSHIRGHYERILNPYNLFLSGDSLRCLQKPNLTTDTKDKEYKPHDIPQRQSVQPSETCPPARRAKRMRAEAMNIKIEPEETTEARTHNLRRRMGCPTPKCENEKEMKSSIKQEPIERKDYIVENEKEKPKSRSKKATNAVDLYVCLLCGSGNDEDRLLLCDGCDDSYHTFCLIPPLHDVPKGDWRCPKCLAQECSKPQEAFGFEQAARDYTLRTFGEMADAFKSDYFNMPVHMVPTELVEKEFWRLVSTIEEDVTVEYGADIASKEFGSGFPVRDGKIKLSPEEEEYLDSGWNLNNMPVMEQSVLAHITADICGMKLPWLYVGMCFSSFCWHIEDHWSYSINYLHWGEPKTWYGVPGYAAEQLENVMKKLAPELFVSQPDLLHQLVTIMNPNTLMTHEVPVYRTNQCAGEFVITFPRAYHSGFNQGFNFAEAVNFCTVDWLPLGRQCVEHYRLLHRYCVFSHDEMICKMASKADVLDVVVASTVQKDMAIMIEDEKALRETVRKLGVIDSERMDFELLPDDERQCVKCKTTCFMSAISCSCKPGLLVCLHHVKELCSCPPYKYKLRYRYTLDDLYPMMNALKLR
Sequence of Jarid1A (P29375 1-1090): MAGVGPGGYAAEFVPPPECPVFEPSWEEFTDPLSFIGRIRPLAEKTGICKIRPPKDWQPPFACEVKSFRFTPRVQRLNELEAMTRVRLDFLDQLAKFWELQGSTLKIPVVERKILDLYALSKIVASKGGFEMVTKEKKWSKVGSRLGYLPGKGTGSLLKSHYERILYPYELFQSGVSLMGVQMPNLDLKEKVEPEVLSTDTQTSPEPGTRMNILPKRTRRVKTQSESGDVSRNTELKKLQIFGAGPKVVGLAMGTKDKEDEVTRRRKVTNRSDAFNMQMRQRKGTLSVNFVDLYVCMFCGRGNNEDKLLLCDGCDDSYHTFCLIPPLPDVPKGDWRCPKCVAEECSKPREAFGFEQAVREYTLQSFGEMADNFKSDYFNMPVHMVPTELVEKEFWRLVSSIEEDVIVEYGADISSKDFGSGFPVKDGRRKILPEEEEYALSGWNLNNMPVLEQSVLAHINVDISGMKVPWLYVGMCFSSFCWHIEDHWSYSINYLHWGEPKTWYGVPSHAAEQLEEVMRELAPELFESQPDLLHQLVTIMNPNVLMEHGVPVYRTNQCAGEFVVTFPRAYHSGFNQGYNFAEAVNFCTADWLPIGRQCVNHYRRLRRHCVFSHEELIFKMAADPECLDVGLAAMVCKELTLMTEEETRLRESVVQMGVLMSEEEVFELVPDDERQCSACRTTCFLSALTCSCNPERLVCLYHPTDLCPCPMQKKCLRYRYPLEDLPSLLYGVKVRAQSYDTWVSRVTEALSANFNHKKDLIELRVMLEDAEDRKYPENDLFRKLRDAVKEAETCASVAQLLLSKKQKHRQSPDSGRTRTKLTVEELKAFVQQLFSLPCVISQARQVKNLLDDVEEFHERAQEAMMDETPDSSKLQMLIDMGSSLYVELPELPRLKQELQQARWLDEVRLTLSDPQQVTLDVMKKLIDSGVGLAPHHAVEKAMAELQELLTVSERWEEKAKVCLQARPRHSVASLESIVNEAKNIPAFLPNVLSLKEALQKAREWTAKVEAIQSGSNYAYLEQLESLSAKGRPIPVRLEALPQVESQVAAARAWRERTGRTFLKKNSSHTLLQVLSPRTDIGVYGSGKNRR
Sequence of JMJD2C (Q9H3R0 2-372): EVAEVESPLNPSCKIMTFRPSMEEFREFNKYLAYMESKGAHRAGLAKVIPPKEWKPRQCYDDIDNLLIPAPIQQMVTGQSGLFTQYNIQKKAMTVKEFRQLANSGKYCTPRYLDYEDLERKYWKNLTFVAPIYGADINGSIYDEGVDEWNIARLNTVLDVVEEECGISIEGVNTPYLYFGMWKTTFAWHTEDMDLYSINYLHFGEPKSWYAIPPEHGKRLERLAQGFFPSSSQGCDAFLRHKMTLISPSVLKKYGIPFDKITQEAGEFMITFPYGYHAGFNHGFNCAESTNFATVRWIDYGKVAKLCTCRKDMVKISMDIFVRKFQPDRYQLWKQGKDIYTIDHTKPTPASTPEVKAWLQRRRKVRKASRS

SMILES | IC50 (KDM5A/B; [1]) [nM] | IC50 (Jarid1B) [nM] | IC50 (JMJD2C) [nM] | IC50 (Jarid1A) [nM] | IC50 (KDM5A/B; read-out: Cellular IC50, 72 hours) [nM]
CN(C)CCCCn1nc(Nc2cnccc2C(=O)O)c2cc(F)ccc21 [Example 43, 3-({1-[4-(dimethylamino)butyl]-5-fluoro-1H-indazol-3-yl}amino)pyridine-4-carboxylic acid, trifluoroacetic acid salt] | – | < 100 | < 100 | < 100 | 1000 to 10000
O=C(O)c1ccncc1Nc1nn([C@H]2CCOC2)c2ccc(F)cc12 [Example 66, 3-({5-fluoro-1-[(3S)-tetrahydrofuran-3-yl]-1H-indazol-3-yl}amino)pyridine-4-carboxylic acid] | 1000 to 10000 | < 100 | < 100 | < 100 | –
CN(C)CCOCCn1nc(Nc2cnccc2C(=O)O)c2ccccc21 [Example 11, 3-[(1-{2-[2-(dimethylamino)ethoxy]ethyl}-1H-indazol-3-yl)amino]pyridine-4-carboxylic acid] | > 10000 | < 100 | < 100 | < 100 | –
Cn1nc(Nc2cnccc2C(=O)O)c2cc(C(F)(F)F)ccc21 [Example 14, 3-[(5-trifluoromethyl-1-methyl-1H-indazol-3-yl)amino]pyridine-4-carboxylic acid] | 1000 to 10000 | < 100 | < 100 | < 100 | –
CCCn1nc(Nc2cnccc2C(=O)O)c2cc(C#N)ccc21 [Example 53] | 1000 to 10000 | < 100 | < 100 | < 100 | –

Continued, in another order:

IC50 (KDM5A/B; [1]) [nM] | IC50 (Jarid1B) [nM] | IC50 (JMJD2C) [nM] | IC50 (Jarid1A) [nM] | SMILES | IC50 (KDM5A/B; read-out: Cellular IC50, 72 hours) [nM]
1000 to 10000 | < 100 | < 100 | < 100 | CC(O)Cn1nc(Nc2cnccc2C(=O)O)c2cc(F)ccc21 (centres unmarked) [Example 51, 3-{[5-fluoro-1-(2-hydroxypropyl)-1H-indazol-3-yl]amino}pyridine-4-carboxylic acid] | –
1000 to 10000 | < 100 | < 100 | < 100 | O=C(O)c1ccncc1Nc1nn(CCCO)c2ccc(F)cc12 [Example 42, 3-{[5-fluoro-1-(3-hydroxypropyl)-1H-indazol-3-yl]amino}pyridine-4-carboxylic acid] | –
1000 to 10000 | < 100 | < 100 | < 100 | O=C(O)c1ccncc1Nc1nn(CCN2CCCC2)c2ccc(F)cc12 [Example 50, 3-({5-fluoro-1-[2-(pyrrolidin-1-yl)ethyl]-1H-indazol-3-yl}amino)pyridine-4-carboxylic acid] | –
